Experimental data reported in PMC6006164, “Natural cyclopeptide RA-V inhibits the NF-κB signaling pathway by targeting TAK1” (Cell Death & Disease, 2018).

Legend:
[1] = Toxicity assessment in xenograft-bearing mice; format: in vivo, female athymic nude BALB/c mice
Text: Fig. 8 Analysis of potential side effects for treatment of RA-V. a–b The change curves of body weights of BALB/c bearing HCT116 (a) or HepG2 (b) xenograft tumors (n = 8 or 7). c Representative hematoxylin–eosin staining of heart, kidney, spleen, lung, and liver from vehicle- and various concentrations of RA-V-treated group. d The evaluation of serum ALT, AST, and creatine kinase for vehicle- and various concentrations of the RA-V-treated group
In total, 2 × 10^6 HCT116 or 3 × 10^6 HepG2 cells were subcutaneously injected into the right dorsal flank of 6- to 8-week-old female athymic nude BALB/c mice. After tumor volumes reached 100 mm^3, the tumor-bearing mice were randomly divided into several groups. The mice bearing HCT116 (n = 8) or HepG2 xenograft tumors (n = 7) were received the intravenous injection of vehicle micelles or various concentrations of RA-V micelles every other day. 5-FU (10 mg/kg) group as positive control. Body weights and tumor volumes were recorded every other day. Tumor volumes were calculated using the following formula: tumor volume (mm^3) = 0.52 × length × width^2. At the end of the experiments, the mice were killed. Tumor xenografts of each mouse were removed and weighed. Part of each tumor tissue was stored at liquid nitrogen for quantitative RT-PCR analysis. Organs (heart, kidney, spleen, lung, and liver) from killed mice were also removed, fixed in the 4% formaldehyde solution for microscopic examination by hematoxylin–eosin staining. Serum alanine transaminase(ALT), aspartate transaminase(AST), and creatine kinase(CK) were determined using relevant kits (Nanjing Jiancheng) according to the manufacturer’s specific instructions.

[2] = system: TAK1, JNK, ERK, p38, and IKKα/β phosphorylation; assay: Western blot of TAK1 and downstream kinase phosphorylation; format: cell-based; settings: HeLa; RA-V 12 h, 10 ng/mL TNF-α 10 min
Experimental: HEK293T cells were transfected with TAK1-N or TAK1-C for 24 h. The cells lysates were incubated with CB12 or biotin and precipitated with streptavidin-coated sepharose and were analyzed by immunoblotting with Flag antibody. b The model for RA-V binding to the crystal structure of the TAK1–TAB1 fusion protein (PDB 4GS6). The blue dotted lines represent the hydrogen bonds between RA-V (green) and TAK1–TAB1. c RA-V probably binds the ATP-binding pocket of TAK1. HEK293T cells were transfected with TAK1 for 24 h, and then the cell lysates were incubated with biotin or CB12 before precipitation with streptavidin agarose. The immunoprecipitates were treated with ATP or (5Z)-7-oxozeaenol and western blotted with Flag antibody. d RA-V inhibits TAK1, JNK, ERK, p38, and IKKα/β phosphorylation. HeLa cells were incubated with various concentrations of RA-V for 12 h and then treated with 10 ng/mL TNF-α for 10 min. The cell lysates were prepared and western blotted with the indicated antibodies. Each experiment was repeated at least three times
For western blot analysis, the samples were equally subjected to sodium dodecyl sulfate polyacrylamide gel electrophoresis (SDS-PAGE) and transferred to polyvinylidene difluoride membranes (Millipore). […] The protein bands were detected with the SuperSignal West Pico Chemiluminescent Substrate (Pierce).

NF-κB signaling pathway = assay: NF-κB-dependent luciferase reporter (5×κB-luciferase/pTK-Renilla), TNF-α-induced, HEK293T cells; format: cell-based; settings: HEK293T; RA-V 6 h, then 10 ng/mL TNF-α 2 h; three independent experiments; read-out: IC50, NF-κB-dependent luciferase reporter
Experimental: HEK293T or HeLa cells were seeded in 24-well plates and transiently transfected with the 5 × κB-luciferase and pTK-Renilla reporters using Lipofectamine 2000 (Invitrogen) for 18 h. The cells were then incubated with different concentrations of the compounds for the indicated times and subsequently stimulated with 10 ng/mL TNF-α for 2 h. The luciferase activity in the cell lysates was analyzed using the Dual Luciferase Reporter Assay System (Promega). The luciferase reporter assays were performed as previously described.
Supplementary Figure 1. RA-V has the best inhibitory effect on NF-κB signaling pathway among RAs. (a-b) HEK293T cells were transfected with the 5×κB-luciferase and pTK-Renilla reporters. Twenty-four hours after transfection, the cells were incubated with various concentrations of the indicated compounds for 6 h and then treated with 10 ng/ml TNF-α for 2 h before the luciferase activity assays. The data are presented as the means ± S.D. from three independent experiments. […]
Scheme for CB12 synthesis. (c) CB12 inhibited NF-κB reporter activity in a dose-dependent manner. The HEK293T cells were transfected with the 5×κB-luciferase and pTK-Renilla reporters. Twenty-four h after transfection, the cells were treated with various concentrations of CB12 for 6 h and then treated with 10 ng/ml TNF-α for 2 h before the luciferase activity assays. (d) […]
Supplementary Table 3: Screening data of small molecules
Category Parameter Description
Assay Type of assay Cell-based
Target NF-κB signaling pathway
Primary measurement Detection of Firefly luciferase enzyme activities and Renilla Luciferase expression
Key reagents 5 × κB-lucieferase and luciferase assay (Progema)
Assay protocol HEK293T cells were seeded in 24 -well plates and transiently transfected with 20 ng of 5×κB-luciferase and 2 ng of pTK-Renilla reporters using Lipofectamine
2000 (Invitrogen) for 18 h. The cells were then incubated with small molecules (10 μM) for 6 hours, and subsequently stimulated with 10 ng/ml TNF -α for 2 h. Luciferase activity of the cell lysates was analysed by the Dual Luciferase Reported Assay System
(Promega). The Firefly luciferase enzyme activities were determined for NF -κB signaling activities and normalized to Renilla Luciferase expression.
Library Library size approximately 200
Library composition natural and synthetic chemical compounds, including cyclopeptides, quinones and terpenes.
Source State Key Laboratory of Phytochemistry and Plant
Resources in West China, Kunming Institute of Botany, Chinese Academy of Sciences
Screen Format 24-well, Corning
Concentration(s) tested 10 μM
Reagent/ compound dispensing system Manual
Detection instrument and software Synergy 2 (BioTek)
Assay validation/QC Velcade inhibits NF-κB signaling pathway
Normalization The Firefly luciferase enzyme activities were normalized by Renilla Luciferase expression
Post-HTS analysis Hit criteria κB-luc/ Renilla ratio < 0.5 standard deviations from the […]
Hit rate Approximately 15%
Confirmation of hit purity and structure Compounds were verified by HPLC and NMR

## RA-V
[1]; HCT116 or HepG2 xenograft mice, measured every other day, vs control
  body weight: no obvious changes
[1]; hematoxylin–eosin staining, vs control
  toxic pathological changes in heart, kidney, spleen, lung and liver: no obvious toxic pathological changes
[1]; liver and heart toxicity, vs vehicle
  levels of serum ALT, AST and creatine kinase: no significant changes
[2]
  phosphorylation of TAK1 and of IKKα/β, JNK, ERK, and p38: inhibited
NF-κB signaling pathway
  IC50: 64.6 nM
